How the values were obtained:
HEK293 cells [1] = test: Cell death assay in HEK293 cells (PI staining, flow cytometry); type: cell-based, human; conditions: HEK293, 5 mM, 48 hours, in the presence of pluronic acid 0.1%
Description: The ability of test compounds to impact cell death in HEK293 cells after 48 hours exposure was assessed.
HEK293 cells were seeded into a 24 well plate ([…]) in DMEM supplemented with 10% FCS, antibiotics and L-glutamine. Drugs at indicated concentrations were added followed by incubation for 48 hours at 37° C. before HEK293 cells were washed, trypsinised and resuspended in PBS prior to PI staining (0.1 μg/ml) before analysis of PI+ ve cells by flow cytometry.

HEK293 cells [2] = test: ROS production in intact HEK293 cells (DCFDA, flow cytometry); type: cell-based, human; conditions: 5 mM, 48 hours, absence and presence of pluronic acid 0.1%
Description: The ability of test compounds to impact ROS production in intact HEK293 cells after 48 hours exposure was assessed.
HEK293 cells were stained with 2′,7′-dichlorofluorescein diacetate (DCFDA; 10 μM, 30 minutes, 37° C.). The cells were then washed and resuspended to 250×10^5/ml. The stained HEK293 cells were seeded into a 24 well plate ([…]) in DMEM supplemented with 10% FCS, antibiotics and L-glutamine. Drugs at indicated concentrations were added followed by incubation for 48 hours at 37° C. before HEK293 cells were washed, trypsinised and resuspended in PBS prior to analysis for ROS production by flow cytometry.

rat = conditions: oral; cited from earlier work
dog = conditions: in vivo, po; cited from earlier work
[3] = system: cells (depending on the cell studied); conditions: read-out: LC 50, in vitro; cited from earlier work
[4] = system: Modified mouse fibroblasts Nrf2−/−; conditions: cited from earlier work

SMILES | cell death (PI staining) (HEK293 cells [1]) | ROS production (HEK293 cells [2]) | LD50 rat (rat) [mg/kg] | LD50 dog (dog) [mg/kg] | CC50 [3] [µM] | sensitivity to diquat compared to normal unmodified [wildtype] cells [4]
CC(C)(N=NC(C)(C)C(=N)N)C(=N)N.Cl.Cl [AAPH] | inducedcell death in HEK293 cells in 2/3 experiments | induced ROS production in the absence and presence of pluronic acid | – | – | – | –
c1cc[n+]2c(c1)-c1cccc[n+]1CC2 [Diquat] | – | – | 231 | 100 to 200 | 40 to 180 | approximately a fourfold increase in sensitivity

From patent US20140066449A1, “DIPYRIDINIUM DERIVATIVES” (SABREPHARM LIMITED, priority 2011, published 2014)
